Entries after “also recorded” stand apart in the source; their conditions may differ.
Legend:
[1] = tested on: STZ-induced mechanical allodynia; test: streptozotocin (STZ)-induced diabetic rats, first experiment; assay type: in vivo, rat
Protocol: FIG. 14 illustrates non-limiting reversal of mechanical hypersensitivity by Compound 1 in a diabetic neuropathy model, in accordance with various embodiments. Streptozotocin (STZ) destroys insulin-producing cells and generates a diabetic phenotype in […]. Animals were dosed with STZ on day −7. By day 0 animals are hyperglycemic and hyperalgesic (day 0 BL).
Experiments were conducted to determine the effect of Compound 1 in streptozotocin (STZ)-induced diabetic rats. In the first experiment, after obtaining mechanical threshold baselines, STZ (50 mg/kg IV) was administered (Day −7). Two days later, blood glucose levels were measured and animals that were hyperglycemic (>250 mg/dL) continued in the study. On Day 0 the baseline for mechanical thresholds prior to dosing with test articles was established for the rats. Compound 1 (10, 30, and 100 mg/kg PO), gabapentin (100 mg/kg PO) or vehicle was then administered daily for 5 days. On Day 0 mechanical thresholds were obtained at 1, 3, and 6 h post-dose. On Day 1 mechanical thresholds were measured immediately prior to dosing and then 3 h post-dose. The same regimen was followed on Day 3.

[2] = dog pharmacokinetics, single PO (10 mg/kg) and IV (3 mg/kg) dose; assay type: in vivo
Protocol: The objective of the first single dose non-GLP study in dogs was to determine the pharmacokinetics and bioavailability of Compound 1 after a single oral (gavage) or single intravenous (IV) dose in dogs. The test article formulation was administered to three male dogs orally via gavage at a dose level of 10 mg/kg (dosing volume of 2 mL/kg body weight). Following a wash-out period of a minimum of three days, the same three dogs were administered the test article formulation via an IV bolus push over approximately 1-2 minutes at a dose level of 3 mg/kg (dosing volume of 0.5 mL/kg). The vehicle for oral gavage dosing was 0.5% HPMC; the vehicle for IV injection was sterile phosphate buffered saline (PBS; pH 7.4). […] Animals were returned to quarantine after the last blood collection.

[3] = dog 7-day repeat dose PO study; assay type: in vivo; details: dog 7 Day PO, N = 1
Protocol: The objective was to develop a preliminary toxicity profile of Compound 1 following daily oral (gavage) administration for 7 days to male and female dogs to support dose selection for a 28-day toxicity study in dogs. Doses were selected based on the results of the MTD phase. Dose levels were 0 (Vehicle Control), 200, 350 and 400 mg/kg (1 dog/sex/group). The vehicle was 0.5% aqueous HPMC.
The animals used in this study were returned to the holding colony

[4] = molecular target: T1, P-gp (Homo sapiens, UniProt P08183); test: transporter inhibition, Caco-2 cells, digoxin transport; assay type: in vitro ADME
T1 construct: Caco-2 cells; endogenous in cells; host or cells: Caco-2 cells

[5] = molecular target: T2, OATP1B3 (Homo sapiens, UniProt Q9NPD5); test: transporter inhibition, HEK293 cells, probe accumulation; assay type: in vitro ADME
T2 construct: expressed in transfected cells; host or cells: HEK293 cells
T2 sequence (Q9NPD5 1-702): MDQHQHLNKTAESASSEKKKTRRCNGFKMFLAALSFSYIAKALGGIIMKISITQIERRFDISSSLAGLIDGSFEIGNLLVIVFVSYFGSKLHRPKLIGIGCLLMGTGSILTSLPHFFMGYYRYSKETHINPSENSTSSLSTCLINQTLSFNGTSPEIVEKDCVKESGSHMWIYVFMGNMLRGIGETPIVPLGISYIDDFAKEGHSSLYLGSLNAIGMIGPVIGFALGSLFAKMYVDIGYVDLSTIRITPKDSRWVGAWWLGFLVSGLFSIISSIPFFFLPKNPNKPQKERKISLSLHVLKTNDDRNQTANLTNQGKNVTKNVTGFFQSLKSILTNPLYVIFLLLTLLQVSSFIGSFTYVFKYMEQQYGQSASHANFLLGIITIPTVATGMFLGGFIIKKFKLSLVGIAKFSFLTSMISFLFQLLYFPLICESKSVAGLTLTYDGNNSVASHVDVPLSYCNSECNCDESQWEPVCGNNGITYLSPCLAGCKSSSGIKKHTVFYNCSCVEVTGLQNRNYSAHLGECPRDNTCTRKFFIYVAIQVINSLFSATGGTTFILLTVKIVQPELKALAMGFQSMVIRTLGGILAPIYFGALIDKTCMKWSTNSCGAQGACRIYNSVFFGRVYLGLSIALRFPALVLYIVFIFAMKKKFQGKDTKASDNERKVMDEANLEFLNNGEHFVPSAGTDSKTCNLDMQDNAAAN

[6] = male dogs, 10 mg/kg oral gavage

T1 sequence (P08183 whole entry): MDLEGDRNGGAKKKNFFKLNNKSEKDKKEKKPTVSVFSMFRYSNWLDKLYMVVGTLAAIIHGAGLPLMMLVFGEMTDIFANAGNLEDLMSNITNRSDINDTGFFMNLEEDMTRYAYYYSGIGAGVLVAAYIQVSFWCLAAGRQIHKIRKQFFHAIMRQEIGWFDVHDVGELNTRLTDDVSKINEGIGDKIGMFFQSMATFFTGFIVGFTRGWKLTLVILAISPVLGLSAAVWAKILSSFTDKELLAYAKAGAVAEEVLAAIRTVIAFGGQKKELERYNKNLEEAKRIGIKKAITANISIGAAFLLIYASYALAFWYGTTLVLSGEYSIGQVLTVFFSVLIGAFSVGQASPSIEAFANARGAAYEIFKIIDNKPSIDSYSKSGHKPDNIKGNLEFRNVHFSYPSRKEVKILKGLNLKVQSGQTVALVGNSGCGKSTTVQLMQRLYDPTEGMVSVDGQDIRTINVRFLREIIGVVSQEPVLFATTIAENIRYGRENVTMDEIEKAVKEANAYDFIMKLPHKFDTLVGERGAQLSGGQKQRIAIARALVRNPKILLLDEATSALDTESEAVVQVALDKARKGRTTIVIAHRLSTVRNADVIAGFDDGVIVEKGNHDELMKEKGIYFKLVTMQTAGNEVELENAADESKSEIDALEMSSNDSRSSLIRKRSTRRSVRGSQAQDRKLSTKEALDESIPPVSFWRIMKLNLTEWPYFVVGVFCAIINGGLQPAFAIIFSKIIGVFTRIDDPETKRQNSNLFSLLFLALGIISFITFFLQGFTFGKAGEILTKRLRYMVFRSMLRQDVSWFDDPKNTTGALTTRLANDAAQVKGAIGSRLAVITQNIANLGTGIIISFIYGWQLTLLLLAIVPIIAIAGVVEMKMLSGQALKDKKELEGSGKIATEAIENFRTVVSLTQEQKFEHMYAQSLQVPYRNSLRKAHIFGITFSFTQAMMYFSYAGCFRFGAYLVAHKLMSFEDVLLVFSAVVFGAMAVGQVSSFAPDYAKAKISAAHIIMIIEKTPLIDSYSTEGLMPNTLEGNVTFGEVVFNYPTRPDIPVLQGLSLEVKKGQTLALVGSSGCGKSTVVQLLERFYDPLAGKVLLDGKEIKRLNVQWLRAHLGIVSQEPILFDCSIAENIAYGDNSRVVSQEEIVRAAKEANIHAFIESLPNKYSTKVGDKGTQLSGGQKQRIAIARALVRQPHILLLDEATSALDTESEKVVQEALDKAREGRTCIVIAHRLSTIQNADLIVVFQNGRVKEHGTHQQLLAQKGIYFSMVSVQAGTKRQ

CC1(C)SC(Nc2ccccc2O)=N[C@@H]1C(=O)O.Cl [Compound 1, (R)-2-(2-hydroxyphenylamino)-5,5-dimethyl-4,5-dihydrothiazole-4-carboxylic acid mono-hydrochloride]
reversal of allodynia (mechanical thresholds) ([1]; 10, 30, 100 mg/kg PO daily, subsequent days): statistically-significant
reversal of allodynia (mechanical thresholds) ([1]; 10, 30, 100 mg/kg PO, Day 0): non-significant reversal of allodynia
efficacy compared with gabapentin ([1]; repeated dosing, gabapentin 100 mg/kg PO, mono-hydrochloride): comparable to gabapentin
effect on allodynia, STZ diabetic neuropathy model (summary) ([1]; streptozotocin-induced, mono-hydrochloride): alleviates allodynia; also recorded: blocks STZ-induced mechanical allodynia
epimerization in vivo (chiral column) ([2]; dog plasma): did not provide any evidence of epimerization
half-life ([2]; dog, plasma, male dogs, 10 mg/kg oral gavage, read-out: median t1/2 (converted)): 1.4 h
tmax ([2]; male dogs, 3 mg/kg IV bolus): about 5 minutes
average oral Cmax [2, 6]: 12 µg/mL
tmax [2, 6]: about 1 hour
mean oral bioavailability ([2]; male dogs, 10 mg/kg oral vs 3 mg/kg IV): 72%
AUC0-last ([3]; Day 1, 200 mg/kg, F): 582 µg·h/mL
Cmax ([3]; Day 1, 200 mg/kg, F): 152 µg/mL
t1/2 ([3]; Day 1, 200 mg/kg, F): 1.3 h
AUC0-last ([3]; Day 1, 200 mg/kg, M): 538 µg·h/mL
Cmax ([3]; Day 1, 200 mg/kg, M): 150 µg/mL
t1/2 ([3]; Day 1, 200 mg/kg, M): 1.1 h
AUC0-last ([3]; Day 1, 350 mg/kg, F): 834 µg·h/mL
Cmax ([3]; Day 1, 350 mg/kg, F): 228 µg/mL
t1/2 ([3]; Day 1, 350 mg/kg, F): 1.2 h
AUC0-last ([3]; Day 1, 350 mg/kg, M): 613 µg·h/mL
Cmax ([3]; Day 1, 350 mg/kg, M): 176 µg/mL
t1/2 ([3]; Day 1, 350 mg/kg, M): 1.1 h
AUC0-last ([3]; Day 1, 400 mg/kg, F): 464 µg·h/mL
Cmax ([3]; Day 1, 400 mg/kg, F): 109 µg/mL
t1/2 ([3]; Day 1, 400 mg/kg, F): 3.9 h
AUC0-last ([3]; Day 1, 400 mg/kg, M): 657 µg·h/mL
Cmax ([3]; Day 1, 400 mg/kg, M): 167 µg/mL
t1/2 ([3]; Day 1, 400 mg/kg, M): 1.2 h
AUC0-last ([3]; Day 7, 200 mg/kg, F): 411 µg·h/mL
Cmax ([3]; Day 7, 200 mg/kg, F): 103 µg/mL
t1/2 ([3]; Day 7, 200 mg/kg, F): 1.5 h
AUC0-last ([3]; Day 7, 200 mg/kg, M): 540 µg·h/mL
Cmax ([3]; Day 7, 200 mg/kg, M): 121 µg/mL
t1/2 ([3]; Day 7, 200 mg/kg, M): 1.4 h
AUC0-last ([3]; Day 7, 350 mg/kg, F): 738 µg·h/mL
Cmax ([3]; Day 7, 350 mg/kg, F): 207 µg/mL
t1/2 ([3]; Day 7, 350 mg/kg, F): 2.4 h
tmax ([3]; Day 7, 350 mg/kg, F): 0.5 h
AUC0-last ([3]; Day 7, 350 mg/kg, M): 591 µg·h/mL
Cmax ([3]; Day 7, 350 mg/kg, M): 184 µg/mL
t1/2 ([3]; Day 7, 350 mg/kg, M): 1.2 h
AUC0-last ([3]; Day 7, 400 mg/kg, F): 751 µg·h/mL
Cmax ([3]; Day 7, 400 mg/kg, F): 183 µg/mL
t1/2 ([3]; Day 7, 400 mg/kg, F): 2.5 h
AUC0-last ([3]; Day 7, 400 mg/kg, M): 210 µg·h/mL
Cmax ([3]; Day 7, 400 mg/kg, M): 69 µg/mL
t1/2 ([3]; Day 7, 400 mg/kg, M): 1.3 h
inhibition [4]: does not inhibit
inhibition [5]: does not inhibit

Reference: US20200289474A1, “METHODS OF TREATING PAIN WITH A THIAZOLINE ANTI-HYPERALGESIC” (priority 2019, published 2020)
